Data: paper PMC12040169 (PLOS Biology, 2025)

Test: in vitro
Conditions: human, hela cells, % viability

SMILES | viability at 28.5 h, 10 µM
Cc1sc(NC(=O)c2ccccc2)c(C(Nc2ccccn2)c2ccc(F)cc2)c1C (stereo not drawn) [CBK296957] | 89.7%
CCC(C)NC(=O)CSc1nnc(-c2cccs2)n1CC (stereo not drawn) [CBK296960] | 86.3%
CC(=O)c1ccc(N2CCN(S(=O)(=O)c3ccc(O)c(C(=O)O)c3)CC2)cc1 [CBK296961] | 94%
CCN(CC)CCNC(=O)c1ccc(NS(=O)(=O)c2cc(C(=O)O)ccc2OC)cc1 [CBK296962] | 103%
O=C(CSc1n[nH]c(=O)n1Cc1ccccc1)NCc1ccc(-c2ccc(Cl)cc2)o1 [CBK296963] | 102%
OCCN1CCN(C(c2cccs2)c2ccc3cccnc3c2O)CC1 (stereo not drawn) [CBK296964] | 76.7%
CC(Sc1nnc(-c2ccc(Cl)cc2)n1CC(=O)O)C(=O)Nc1ccnn1C(C)C (stereo not drawn) [CBK296970] | 96.9%
O=C(O)C1CCN(C(=O)CSc2nnc(-c3ccccc3F)n2C2CCCC2)CC1 [CBK296971] | 115%
Cc1nn(CCC#N)c2nc(-c3ccc(F)cc3)cc(C(=O)O)c12 [CBK296974] | 94.7%
CCOC(=O)N1CCN(S(=O)(=O)c2cc(C(=O)O)c(Cl)cc2Cl)CC1 [CBK296975] | 96.2%
CCCn1c(SCC(=O)NCCN2C(=O)CSC2=O)n[nH]c1=O [CBK296976] | 89.2%
Cc1cnc(C(=O)OCc2cc(=O)n3ccsc3n2)cn1 [CBK296978] | 95.5%
CSCCC(C(=O)O)N1C(=O)C(=Cc2ccc(-c3cc(Cl)cc(Cl)c3)o2)SC1=S (stereo not drawn) [CBK296984] | 87.3%
COCCOC(=O)C1=C(C)N(c2ccc(C(=O)O)cc2)C(=O)NC1c1ccccc1Cl (stereo not drawn) [CBK296986] | 97%
Cc1ccc(Nc2nc(Cn3nc(C(=O)O)c4ccccc4c3=O)cs2)cc1 [CBK296989] | 86.7%
Cc1occc1-c1nnc(SC2CCCCN(C(=O)c3ccc(Cl)cc3)C2=O)n1C (stereo not drawn) [CBK296990] | 97.9%
O=C(O)CCNC(=O)c1ccc(NS(=O)(=O)c2ccc(C3CCCCC3)cc2)cc1 [CBK296991] | 96.1%
CCOc1ccc(Oc2ccc(C(F)(F)F)cc2NC(=O)CCCC(=O)O)cc1 [CBK296993] | 90.7%
O=C(Nc1ccc(-c2ccccc2)cc1)c1cccc(S(=O)(=O)NCC2CCCO2)c1 (stereo not drawn) [CBK296994] | 95.7%
Cc1cccn2cc(CSc3nnc4[nH]c5ccccc5n34)nc12 [CBK296996] | 94.1%
Cc1cc(C(=O)CSc2nnnn2-c2ccc(O)cc2)c(C)n1Cc1ccc(F)cc1 [CBK297081] | 98.8%

SMILES | viability at 28.5 h, 10 µM
Cc1nc2ccccc2n1CCNC(=O)c1ccccc1SCc1ccc(C#N)cc1 [CBK297082] | 106%
COc1cc(NC(=O)C2CCN(S(=O)(=O)c3cccs3)CC2)c(Cl)cc1C(=O)O [CBK297085] | 99.7%
CCn1c(SCc2cc(Cl)c3c(c2)OCCO3)nnc1-c1ccc(OC)cc1 [CBK297086] | 88.9%
COc1ccc(CN(C)C(=O)CCc2c(C)nc3c(cnn3C(C)C)c2C)cc1 [CBK297087] | 80.6%
COc1ccc(C(=O)CSc2nnc(-c3ccccc3)c3ccccc23)cc1OC [CBK297088] | 93.3%
CC(C)(C)c1ccc(S(=O)(=O)N2CCN(CCC(=O)O)CC2)cc1 [CBK297089] | 103%
O=C(Nc1cccc(-c2nnc3n2CCCCC3)c1)[C@@H]1CCCN1C(=O)c1cccs1 [CBK297090] | 109%
CN(c1ccccc1)S(=O)(=O)c1cccc(NC(=O)c2ccc(=O)[nH]n2)c1 [CBK297091] | 96.3%
Cc1nnc(Sc2nc(CN3CCOCC3)nc3scc(-c4cccs4)c23)n1C [CBK297092] | 103%
COc1cc(C)c(CN2CCN(S(=O)(=O)c3cc(C(=O)O)cs3)CC2)cc1OC [CBK297093] | 97.2%
CC1CCN(S(=O)(=O)c2ccc(C(=O)N3CCCCC3C(=O)O)cc2)CC1 (stereo not drawn) [CBK297094] | 89.8%
O=C(O)c1ccc(CNC(=O)c2ccc(Cl)c(S(=O)(=O)N3CCCC3)c2)cc1 [CBK297096] | 95.7%
Cc1ccc(-c2csc3ncnc(NCCCc4n[nH]c(N)c4C#N)c23)cc1 [CBK297100] | 98.1%
CSCCC(NC(=O)c1ccc(S(=O)(=O)N2CC(C)OC(C)C2)cc1)C(=O)O (stereo not drawn) [CBK297101] | 104%
CC(Sc1ncc(-c2ccc(F)cc2)n1Cc1ccccc1)C(=O)NC1CC1 (stereo not drawn) [CBK297105] | 108%
CC1CCN(S(=O)(=O)c2ccc(C(=O)N[C@@H](C)C(=O)O)cc2)CC1 [CBK297106] | 96.6%
CSCc1ccc(C(=O)Nc2cc(C(=O)O)ccc2C)cc1 [CBK297107] | 93%
COc1ccc(-c2nnc(SC(C)c3nnc(-c4ccccc4)o3)n2CC(C)C)cc1 (stereo not drawn) [CBK297108] | 103%
CCCn1c(SCC(=O)N2CCN(C(=O)c3cccs3)CC2)n[nH]c1=O [CBK297109] | 97.6%
O=C1COc2ccc(C(=O)CSc3nnc(C4CC4)n3C3CC3)cc2N1 [CBK297110] | 73.4%
Cc1ccc2cc(COc3cccnc3[N+](=O)[O-])c(Cl)nc2c1C [CBK297113] | 103%

SMILES | viability at 28.5 h, 10 µM
CC1CC(=O)Nc2ccccc2N1C(=O)Cn1c(=O)cnc2ccccc21 (stereo not drawn) [CBK297116] | 95%
Cc1c(C(=O)O)sc(S(=O)(=O)N2CCN(C(=O)c3ccc(F)cc3)CC2)c1C(=O)O [CBK297118] | 107%
Cc1ccc(C(=O)N2CCN(S(=O)(=O)c3sc(C(=O)O)c(C)c3C(=O)O)CC2)cc1 [CBK297120] | 91.1%
Cc1c(C(=O)O)sc(S(=O)(=O)N2CCN(C(=O)CC3CCCC3)CC2)c1C(=O)O [CBK297122] | 101%
Cc1c(C(=O)O)sc(S(=O)(=O)N2CCN(C(=O)c3ccc(Cl)cc3)CC2)c1C(=O)O [CBK297123] | 96.9%
Cc1ccc2nc(Cn3cc(-c4cnn(Cc5ccccc5)c4)cn3)cn2c1 [CBK297125] | 90.4%
COc1cccc(-c2noc(Cn3cnc4sccc4c3=O)n2)c1 [CBK297127] | 85.3%
COc1ccc(S(=O)(=O)N2CCCCC2)cc1NC(=O)c1ccc(-c2nnn[nH]2)cc1 [CBK297128] | 93%
O=C(Cc1ccc2c(c1)CCCC2)Nc1cccc(-c2nnn[nH]2)c1 [CBK297129] | 114%
O=C(CCCc1nc2ccccc2c(=O)[nH]1)NC(Cc1ccc(O)cc1)C(=O)O (stereo not drawn) [CBK297130] | 101%
CC(CCc1ccccc1)NC(=O)C(C)Sc1nnc(-c2cccs2)n1C1CC1 (stereo not drawn) [CBK297131] | 89.5%
CCOCCCn1c(SCC(=O)NC(Cc2ccccc2)C(=O)O)nc2ccccc2c1=O (stereo not drawn) [CBK297132] | 90.5%
Cn1c(SCC(=O)Nc2cc(C(C)(C)C)no2)nnc1-c1ccc(C(C)(C)C)cc1 [CBK297133] | 89.6%
Cc1c(C(=O)O)sc(S(=O)(=O)N2CCN(C(=O)Cc3ccsc3)CC2)c1C(=O)O [CBK297134] | 89.8%
Cc1c(C(=O)O)sc(S(=O)(=O)N2CCN(C(=O)Cc3ccccc3Cl)CC2)c1C(=O)O [CBK297137] | 107%
CCc1ccc(CCC(=O)N2CCN(S(=O)(=O)c3sc(C(=O)O)c(C)c3C(=O)O)CC2)cc1 [CBK297138] | 111%
O=C(O)c1cn(C2CC2)c2cc(N3CCN(C(=O)C4CCCO4)CC3)c(F)cc2c1=O (stereo not drawn) [CBK297139] | 97.7%
Cc1c(C(=O)O)sc(S(=O)(=O)N2CCN(C(=O)CC(C)c3ccccc3)CC2)c1C(=O)O (stereo not drawn) [CBK297143] | 97.4%
CSc1ccccc1C(=O)N1CCN(S(=O)(=O)c2sc(C(=O)O)c(C)c2C(=O)O)CC1 [CBK297149] | 90.4%
CC1CCN(S(=O)(=O)c2ccc(C(=O)NC(C(=O)O)C(C)O)cc2)CC1 (stereo not drawn) [CBK297151] | 99.1%
Cc1ccc(-c2cc(C(=O)N3CCN(C4CCS(=O)(=O)C4)CC3)c3ccccc3n2)cc1 (stereo not drawn) [CBK297153] | 112%

SMILES | viability at 28.5 h, 10 µM
Cc1nnc(CSc2ncc(-c3ccc(Cl)cc3)n2Cc2ccccc2)o1 [CBK297154] | 103%
COc1ccc(CN2CCN(C(=O)NS(=O)(=O)c3ccc(C)cc3)CC2)cc1F [CBK297156] | 98.5%
Clc1cc(CSc2nnnn2-c2ccccc2)cc2c1OCCCO2 [CBK297159] | 92.5%
Cc1ccc(C(=O)O)cc1NC(=O)CSc1nc2scc(C3CC3)c2c(=O)n1-c1ccccc1 [CBK297481] | 107%
Cc1cc(C)n2nc(SCc3nc4sc(C(=O)O)c(C)c4c(=O)[nH]3)nc2n1 [CBK297482] | 88.1%
O=[N+]([O-])c1ccc(Sc2nnc(-c3cccs3)n2CC2CCCO2)cn1 (stereo not drawn) [CBK297483] | 94.6%
COc1cc(C=CC(=O)O)cc(S(=O)(=O)Nc2ccccc2C(=O)NCCc2ccccc2)c1OC [CBK297487] | 99.5%
O=C(Cn1nnc2ccccc21)NC(c1ccccc1)c1ccccc1 [CBK297488] | 110%
CC[C@H](C)[C@H](NC(N)=O)C(=O)Nc1ccc(F)c([N+](=O)[O-])c1 [CBK297489] | 97.1%
Cc1ccc(C(=O)O)cc1NS(=O)(=O)c1ccc2c(c1)OCCO2 [CBK297497] | 90.7%
COc1cccc(NCc2nnc(SCC(=O)O)n2C2CCCCC2)c1 [CBK297499] | 95.6%
Cn1nc(C(=O)NCCSc2n[nH]c(=O)[nH]c2=O)c2ccccc2c1=O [CBK297501] | 79.1%
COc1ccc(C2CC(c3ccc4ccccc4c3)=NN2C(=O)COc2ccccc2C(=O)O)cc1 (stereo not drawn) [CBK297503] | 102%
Cc1cc(C(=O)Cn2nc(C(=O)O)c3ccccc3c2=O)c(C)n1Cc1ccccc1Cl [CBK297504] | 111%
COc1ccc(CCNC(=O)c2ccccc2NS(=O)(=O)c2cc(C(=O)O)ccc2OC)cc1 [CBK297506] | 90.8%
CCOc1ccc2cc(C3CC(c4ccc(C)cc4)=NN3C(=O)CCC(=O)O)c(Cl)nc2c1 (stereo not drawn) [CBK297508] | 87.2%
Cc1cccc(NC(=O)[C@@H](NC(=O)c2ccccc2F)C(C)C)c1C [CBK297509] | 85.4%
Cc1[nH]c2ccccc2c1C(=O)CSc1nc(N)cc(=O)[nH]1 [CBK297511] | 103%
